Assays:
[1] = target: T1, Adenosine receptor A1 (Homo sapiens, UniProt P30542); test: Compound was evaluated for the Adenosine A1 receptor agonist potency.; type: functional, Cricetulus griseus
T1 sequence (P30542 whole entry): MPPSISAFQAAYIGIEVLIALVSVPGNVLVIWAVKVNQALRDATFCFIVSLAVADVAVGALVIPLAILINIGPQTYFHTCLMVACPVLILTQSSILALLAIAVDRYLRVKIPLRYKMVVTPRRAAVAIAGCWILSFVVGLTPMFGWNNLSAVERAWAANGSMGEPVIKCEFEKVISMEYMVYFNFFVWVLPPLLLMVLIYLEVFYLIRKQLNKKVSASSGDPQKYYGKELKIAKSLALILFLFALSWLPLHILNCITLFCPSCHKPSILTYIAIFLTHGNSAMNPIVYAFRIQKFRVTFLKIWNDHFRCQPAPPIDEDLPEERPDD

[2] = Compound was evaluated for the maximal inhibition of (-)-isoproterenol stimulated cAMP accumulation in DDT-1 MF-2 cells; type: functional, Cricetulus griseus

Row | EC50 [1] | Structure (SMILES) | Max inhibition [2]
1 | 10 nM | OC[C@H]1O[C@@H](n2cnc3c(N[C@@H]4CC5CC4C4OC54)ncnc32)[C@H](O)[C@@H]1O (stereo not given in full) | 82%
2 | 0.81 nM | OC[C@H]1O[C@@H](n2cnc3c(N[C@H]4CC5CC4C4OC54)ncnc32)[C@H](O)[C@@H]1O (stereo not given in full) | 81%
3 | – | OC[C@H]1O[C@@H](n2cnc3c(NC4CCCC4)ncnc32)[C@H](O)[C@@H]1O [N6-CYCLOPENTYLADENOSINE] | 80%
